Results on 1 compound are retold here after patent publication US10065934B2, “Substituted urea derivatives and pharmaceutical uses thereof” (SUNSHINE LAKE PHARMA CO., LTD., priority 2014, dated 2018).

One data set deals with T1, FLT3 kinase (Homo sapiens, UniProt P36888).
T1 sequence (P36888 27-993): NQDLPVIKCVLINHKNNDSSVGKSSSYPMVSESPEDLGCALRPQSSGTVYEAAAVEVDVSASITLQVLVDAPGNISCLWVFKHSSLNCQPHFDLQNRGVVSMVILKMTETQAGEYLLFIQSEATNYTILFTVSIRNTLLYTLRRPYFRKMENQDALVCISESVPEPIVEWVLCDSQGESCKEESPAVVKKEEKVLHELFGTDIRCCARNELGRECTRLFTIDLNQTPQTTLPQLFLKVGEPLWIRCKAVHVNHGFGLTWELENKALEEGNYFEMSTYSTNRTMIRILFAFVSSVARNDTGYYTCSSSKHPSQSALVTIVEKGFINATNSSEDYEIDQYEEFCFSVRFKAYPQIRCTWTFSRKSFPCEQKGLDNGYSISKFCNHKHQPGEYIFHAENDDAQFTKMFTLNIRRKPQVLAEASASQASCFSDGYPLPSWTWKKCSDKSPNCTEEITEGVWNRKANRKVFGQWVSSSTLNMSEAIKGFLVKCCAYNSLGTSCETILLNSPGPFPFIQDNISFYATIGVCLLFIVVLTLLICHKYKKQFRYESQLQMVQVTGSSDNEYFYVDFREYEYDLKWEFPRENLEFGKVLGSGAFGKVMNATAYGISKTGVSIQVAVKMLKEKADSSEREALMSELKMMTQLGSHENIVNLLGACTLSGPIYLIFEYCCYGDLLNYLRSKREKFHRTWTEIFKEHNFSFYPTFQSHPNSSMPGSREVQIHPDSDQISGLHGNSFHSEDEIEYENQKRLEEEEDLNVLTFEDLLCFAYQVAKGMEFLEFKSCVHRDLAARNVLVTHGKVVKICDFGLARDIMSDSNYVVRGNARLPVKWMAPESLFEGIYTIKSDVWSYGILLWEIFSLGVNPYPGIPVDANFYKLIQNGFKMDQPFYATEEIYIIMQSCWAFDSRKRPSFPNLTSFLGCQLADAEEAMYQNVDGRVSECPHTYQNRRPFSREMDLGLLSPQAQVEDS
Kind of data set: In vitro enzymatic inhibitory activity (kinase reaction, FAM-labeled peptide). It is filed as biochemical. The following applies: in vitro enzymatic inhibition.

Another data set has as its system MV-4-11 cell. Kind of data set: In vitro cytology inhibitory activity (MV-4-11 cell proliferation, cell viability luminescence). The class given is cell-based. The following applies: Homo sapiens, MV4-11; MV-4-11 cells, 72 h incubation. As for the experimental part: Cell assay condition was shown below:
a. A complete medium was prepared and mixed well. b. Cell was recovered, and cell lines of between about two generations in good condition of growth were selected. c. The cell culture flasks were removed from the incubator, and the labeled cell name on the bottles, culture medium type and cell algebra were checked. d. The cell suspension was pipette into a centrifuge tube, and centrifuged at 800-1000 rpm for 3-5 minutes. e. Cell supernatant of the centrifuge tube was aspirated. f. Appropriate volume of culture medium was added into the centrifuge tube, and the cells were resuspended by gentle pipetting uniform. g. Vi-Cell XR cytometer was used for count. h. The cell suspension was adjusted to the appropriate concentration. i. The cell suspension was added to the bottom wall of the white 96-well plate, 100 microliters/well. Cells name, kind of board density and date were detailed labeled, and the culture plate was placed in CO2 incubator overnight.
2. Preparation and Addition of the Test Compounds
i) Preparation of test compound plates by diluting to 10 concentrations with DMSO: first, the test compound stock solution was prepared by dissolving a weighed compound in DMSO to a concentration of 10 mM, and then diluted to the concentration of 4 mM, which was then diluted to the concentration of 0.4 mM used as the highest concentration for testing with DMSO. The highest concentration was sequentially followed by 3-fold dilution for a total of 10 concentrations. Staurosporine was the positive control drug. ii) Addition of test compounds: a. 0.5 μL of test compound prepared above in compound plate was added into the cell culture plate that had been incubated overnight. Then the culture plate was incubated in an incubator at 37° C. for 72 hours.
3. Detection and Analysis
a. 72 hours after the compound treatment, cells was observed under an inverted microscope morphology, and cell growth state in DMSO control well was normal, there was no contamination. b. The cell culture plate was placed in equilibrium at room temperature for 30 minutes. c. The cell viability detection reagent at 100 μL/well was placed into culture plate. d. The mixture in culture plate was mixed two minutes in the vibration plate machine to induce cell lysis. e. 96-well plate was placed for 10 minutes at room temperature, making it stable luminescent signal. f. White base film was pasted on the bottom of the culture plate, and the plate was tested by using Flexstation3 (related to: light, integration time 500 ms). g. Experimental results were recorded and analyzed.

Data set [1] can be described thus: Evaluation of pharmacokinetic activity in male SD rats (iv and oral). It is filed as in vivo. As to conditions: for Cmax: read-out: Cmax. The method, then: 1. Preparation of the Test Compound Solutions
The test compound solutions were prepared using appropriate amounts of 5% DMSO, 5% KolliphorHS15 and 90% Saline to dissolve each compound completely.
140-190 g male SD rats were randomly divided into two groups. One group was administered through intravenous drug delivery with the dosage of 1.0 or 2.0 mg/kg, and the other group was administered by oral with the dosage of 5.0 mg/kg. For intravenous administration, caudal vein blood samples at the time points of 0.0833, 0.25, 0.5, 1.0, 2.0, 4.0, 6.0, 8.0 and 24 h were collected after drug administration (the time point of drug administration was set as 0 h); and for oral administration, caudal vein blood samples at the time points of 0.25, 0.5, 1.0, 2.0, 4.0, 6.0, 8.0 and 24 h were collected after drug administration (the time point of drug administration was set as 0 h). Appropriate range of standard curve was established according to the sample concentration, and the test compound concentrations in plasma sample were measured by LC-MS/MS analysis. Pharmacokinetic parameters were calculated by non-compartmental method using WinNonLin 6.3 software based on drug concentration-time curves.

Read-outs that look alike come from different tables or passages of the source.

What is called IC50 is the midpoint of a concentration-inhibition curve. Read a low IC50 as greater potency in that assay. A word on the AUC(0-inf): it is the area under the concentration-time curve extrapolated to infinity. As usually defined, the AUC(0-t) is exposure summed from dosing to a finite time, without extrapolation to infinity. A word on the Tmax: it is the time from dosing to the highest level. As usually defined, the half-life is the time in which the quantity being followed falls by half. A lower half-life goes with fast loss. The term Cmax denotes the highest concentration seen after dosing. For orientation: bioavailability means the share of a dose that reaches the circulation, judged against a reference dose that is usually intravenous. A higher bioavailability goes with good availability. In turn, `CC(C)(C)c1cc(NC(=O)Nc2ccc(C#Cc3ccc(OCCCN4CCOCC4)cc3F)cc2)no1` [Example 4, 1-(5-(tert-Butyl)isoxazol-3-yl)-3-(4-((2-fluoro-4-(3-morpholinopropoxy)phenyl)ethynyl)phenyl) urea] gave an IC50 against FLT3 kinase of 0.039 µM. In the data set on MV-4-11 cell, half-maximal inhibition (IC50) required 0.0052 µM. Besides, in data set [1] (po, 5 mg/kg), the “T1/2” value is listed as 5.86 h. In data set [1] (rat, plasma, iv, 2 mg/kg), the area under the curve AUC(0-inf) came to 6.94 µg·h/mL, the AUC(0-t) was 6.57 µg·h/mL, the time to peak (Tmax) was 0.08 h and the half-life is 6.23 h. In addition, the Cmax in data set [1] (rat, plasma, iv, 2 mg/kg) amounted to 2.69 µg/mL. The Vd in data set [1] (rat, plasma, iv, 2 mg/kg, read-out: Vss) came out at 1.83 L/kg. This compound also registered a bioavailability in data set [1] (rat, plasma, po 5 mg/kg vs iv 1 or 2 mg/kg) of 69.3%. In data set [1] (rat, plasma, po, 5 mg/kg), the AUC(0-inf) came to 12 µg·h/mL, the exposure AUC(0-t) amounted to 11.3 µg·h/mL, the Tmax is 2.67 h and the maximum concentration (Cmax) is 1.37 µg/mL.
